Assay results taken from ChEMBL document CHEMBL1131806, “Structure-activity relationships of pyrroloquinazolines as thrombin receptor antagonists” (Bioorg Med Chem Lett, 1999).
Activity calls are given as the source filed them. The rule behind the calls is not given here.

Legend:
[1] = target: T1, Proteinase-activated receptor 1 (Homo sapiens, UniProt P25116); test: Inhibitory activity against binding to Thrombin receptor 1 (PAR-1)
T1 sequence (P25116 whole entry): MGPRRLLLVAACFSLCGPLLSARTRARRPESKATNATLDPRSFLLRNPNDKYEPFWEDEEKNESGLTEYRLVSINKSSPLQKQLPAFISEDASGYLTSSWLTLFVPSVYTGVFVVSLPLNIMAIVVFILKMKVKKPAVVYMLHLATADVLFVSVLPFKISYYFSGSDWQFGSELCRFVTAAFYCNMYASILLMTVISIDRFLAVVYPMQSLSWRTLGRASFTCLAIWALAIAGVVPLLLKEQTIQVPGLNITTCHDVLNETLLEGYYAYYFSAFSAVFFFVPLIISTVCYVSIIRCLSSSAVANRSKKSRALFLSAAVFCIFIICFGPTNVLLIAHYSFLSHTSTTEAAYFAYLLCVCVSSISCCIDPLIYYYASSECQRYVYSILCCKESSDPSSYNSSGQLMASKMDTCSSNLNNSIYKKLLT

Homo sapiens [2] = species on record: Homo sapiens; test: Compound was evaluated for the inhibition of aggregation induced by 0.1 U/mL thrombin at 10 uM concentration and determined at 2 min; NA = Not active; format: functional, organism-based
Homo sapiens [3] = species on record: Homo sapiens; test: Compound was evaluated for the inhibition of aggregation induced by 300 nM ha-TRAP(high affinity thrombin receptor agonist peptide); format: functional, organism-based
Homo sapiens [4] = species on record: Homo sapiens; test: Compound was evaluated for the inhibition of aggregation induced by 0.1 U/mL thrombin and determined at 2 min.; format: functional, organism-based
Homo sapiens [5] = species on record: Homo sapiens; test: Compound was evaluated for the inhibition of aggregation induced by 300 nM ha-TRAP(high affinity thrombin receptor agonist peptide) at 10 uM concentration; format: functional
Homo sapiens [6] = species on record: Homo sapiens; test: Compound was evaluated for the inhibition of aggregation induced by 300 nM ha-TRAP(high affinity thrombin receptor agonist peptide) at 10 uM concentration; NA = Not active; format: functional, organism-based
[7] = target: T2, Proteinase-activated receptor 1 (Homo sapiens) (UniProt P25116); test: Compound was evaluated for inhibitory activity against binding to Thrombin receptor 1 (PAR-1) at 1 uM concentration
T2 sequence (whole entry): T1 sequence (P25116 whole entry)

Homo sapiens [8] = species on record: Homo sapiens; test: Compound was evaluated for the inhibition of platelet aggregation induced by 0.1 U/mL thrombin at concentration. of 10 uM; NA = Not active; format: functional, organism-based

CNc1nc(N(C)C)nc2ccc3c(ccn3Cc3ccc(C(C)C)cc3)c12 was tested, and the IC50 [1] was 3200 nM and the inhibition (Homo sapiens [2]) was “inactive”.

With CC(C)c1ccc(Cn2ccc3c4c(N)nc(N(C)C)nc4ccc32)cc1 the IC50 [1] was 100 nM, the inhibition (Homo sapiens [2]) was “inactive” and the IC50 (Homo sapiens [3]) was 2000 nM.

CSc1ccc(Cn2ccc3c4c(N)nc(N)nc4ccc32)cc1 gave an IC50 [1] of 6880 nM.

CC(C)c1ccc(Cn2ccc3c4c(N)nc(N5CCCCC5)nc4ccc32)cc1 was tested, and the IC50 [1] was 100 nM, the inhibition (Homo sapiens [2]) was “inactive” and the IC50 (Homo sapiens [3]) was 600 nM.

CNc1nc(N)c2c(ccc3c2ccn3Cc2ccc(C(C)C)cc2)n1 was tested, and the IC50 [1] was 870 nM, the inhibition (Homo sapiens [2]) was “inactive” and the IC50 (Homo sapiens [3]) was 600 nM.

CC(C)c1ccc(Cn2ccc3c4c(N)nc(NC5CC5)nc4ccc32)cc1 showed an IC50 (Homo sapiens [4]) of 3000 nM, an IC50 [1] of 56 nM and an IC50 (Homo sapiens [3]) of 300 nM.

Compound CCOc1ccc(Cn2ccc3c4c(N)nc(N)nc4ccc32)cc1 has an IC50 [1] of 2630 nM.

Compound CC(C)(C)c1ccc(Cn2ccc3c4c(N)nc(N)nc4ccc32)cc1 has an IC50 [1] of 1230 nM.

In the case of CC(C)c1ccc(Cn2ccc3c4c(N(C)C)nc(N(C)C)nc4ccc32)cc1, the IC50 [1] is reported as 1250 nM, the inhibition (Homo sapiens [2]) is reported as “inactive” and the Inhibition (Homo sapiens [5]) is reported as 40%.

Compound C=Cc1ccc(Cn2ccc3c4c(N)nc(N)nc4ccc32)cc1 has an IC50 [1] of 9600 nM.

Work on CCc1ccc(Cn2ccc3c4c(N)nc(N)nc4ccc32)cc1 yielded an IC50 [1] of 4500 nM.

In the case of CC(C)c1ccc(Cn2ccc3c4c(N)nc(NCCO)nc4ccc32)cc1, the IC50 [1] is reported as 4900 nM, the inhibition (Homo sapiens [2]) is reported as “inactive” and the inhibition (Homo sapiens [6]) is reported as “inactive”.

Compound Cc1ccc2cc(Cn3ccc4c5c(N)nc(N)nc5ccc43)ccc2c1 has an IC50 [1] of 1750 nM.

CC(C)c1ccc(Cn2ccc3c4c(N)nc(N(C)C5CC5)nc4ccc32)cc1 gave an IC50 (Homo sapiens [4]) of 700 nM, an IC50 [1] of 52 nM and an IC50 (Homo sapiens [3]) of 150 nM.

CC(C)c1ccc(Cn2ccc3c4c(N)nc(N5CCc6ccccc6C5)nc4ccc32)cc1 was tested, and the inhibition (Homo sapiens [2]) was “inactive” and the inhibition [7] was “inactive”.

For CC(C)c1ccc(Cn2ccc3c4c(N)nc(N5CCNCC5)nc4ccc32)cc1, the inhibition (Homo sapiens [2]) was “inactive”, the inhibition [7] was 17% and the inhibition (Homo sapiens [6]) was “inactive”.

For CCNc1nc(N)c2c(ccc3c2ccn3Cc2ccc(C(C)C)cc2)n1, the IC50 [1] was 524 nM, the inhibition (Homo sapiens [2]) was “inactive” and the IC50 (Homo sapiens [3]) was 600 nM.

With CC(C)c1ccc(Cn2ccc3c4c(N)nc(N)nc4ccc32)cc1 the inhibition (Homo sapiens [8]) was “inactive”, the IC50 [1] was 300 nM and the IC50 (Homo sapiens [3]) was 3000 nM.
